Consider 6 compounds from US20240374628A1 (Whispergenics. Inc., priority 2021, published 2024).

One experiment deals with Caco2. In words: CellTiter-Glo cell viability, Caco2. The settings on record: 48 h, dose curve 625 μM-40000 μM, FIG. 3. It counts as cell-based, human. Here is the method:
(§1) Cell lines: Human colon cancer cell lines CCD-18Co and Caco2 (American Type Culture Collection [ATCC], Bethesda, MD) were maintained in Eagle's Minimum Essential Medium (Thermo Fisher Scientific, MA) supplemented with 100,000 U/L of penicillin, 100,000 μg/L of streptomycin, and 20% fetal bovine serum (FBS). HT29 (American Type Culture Collection [ATCC], Bethesda, MD) was maintained in McCoy's 5a Medium Modified (Thermo Fisher Scientific, MA) supplemented with 100,000 U/L of penicillin, 100,000 μg/L of streptomycin, and 10% fetal bovine serum (FBS). The following cells were also tested: MDA 231 Breast Cancer Cells, U87 Glioblastoma Cells, U251 Glioblastoma Cells and Dul45 Prostate Cancer Cells. All cells were maintained in Eagles Medium as described above.
(§2) The cells were subjected to cell viability assays using The CellTiter-Glo luminescent cell viability kit (Promega, catalog number: G7570). luminescence was measured using microplate luminometer (luminoskan™ ascent, Thermo-Fisher Scientific, MA). Background luminescence was measured in medium without cells and subtracted from experimental values.

The test system of experiment [1] is human colon cancer cell lines (CCD-18Co, Caco2, HT29). Nature of the experiment: CellTiter-Glo cell viability, three human colon cancer cell lines. The settings on record: dose-response curves, 48 h, FIGS. 1-3. Type of experiment: cell-based. As to the method:
as §1, with “The following cells were also tested: MDA 231 Breast Cancer Cells, U87 Glioblastoma Cells, U251 Glioblastoma Cells and Dul45 Prostate Cancer Cells.” left out
as §2

The test system of another experiment is BIRC5 expression. Nature of the experiment: Cardiac glycosides that inhibit BIRC5 expression in colorectal cancer. It counts as cell-based.
Another experiment has as its system HT29. In words: CellTiter-Glo cell viability, HT29. Type of experiment: cell-based, human. Conditions: 48 h, dose curve 12.5 nM-800 nM, FIG. 1. As to the method: as §1, §2

As for `CN(C)C(=N)N=C(N)N` [Metformin], the “sensitivity of cell viability” value with Caco2 is on record as “sensitive”. Also, the “cell viability, single drug alone” value in experiment [1] is “reduced cell viability to varying degrees”. On to `C[C@]12CC[C@H](O)C[C@H]1CC[C@@H]1[C@@H]2CC[C@]2(C)[C@@H](C3=CC(=O)OC3)CC[C@]12O` [Digitoxigenin], for which, in the experiment on BIRC5 expression, the “inhibition of BIRC5 expression” value is recorded as “inhibit BIRC5 expression”. For the compound `CC(=O)O[C@H]1C[C@H](O[C@H]2[C@@H](O)C[C@H](O[C@H]3[C@@H](O)C[C@H](O[C@H]4CC[C@@]5(C)[C@H](CC[C@@H]6[C@@H]5C[C@@H](O)[C@]5(C)[C@@H](C7=CC(=O)OC7)CC[C@]65O)C4)O[C@@H]3C)O[C@@H]2C)O[C@H](C)[C@H]1O[C@@H]1O[C@H](CO)[C@@H](O)[C@H](O)[C@H]1O` [Lanatoside C], the “inhibition of BIRC5 expression” value in the experiment on BIRC5 expression is given as “inhibit BIRC5 expression”. On the same count and under the same terms, next, `C[C@]12CC[C@H](O)C[C@H]1CC[C@@H]1[C@@H]2CC[C@]2(C)[C@@H](c3ccc(=O)oc3)CC[C@]12O` [bufalin]: “inhibit BIRC5 expression”; `C[C@@H]1O[C@@H](O[C@H]2C[C@@H](O)[C@]3(CO)[C@H]4[C@H](O)C[C@]5(C)[C@@H](C6=CC(=O)OC6)CC[C@]5(O)[C@@H]4CC[C@]3(O)C2)[C@H](O)[C@H](O)[C@H]1O` [Ouabain]: “inhibit BIRC5 expression”. For `C[C@H]1O[C@@H](O[C@H]2[C@@H](O)C[C@H](O[C@H]3[C@@H](O)C[C@H](O[C@H]4CC[C@@]5(C)[C@H](CC[C@@H]6[C@@H]5C[C@@H](O)[C@]5(C)[C@@H](C7=CC(=O)OC7)CC[C@]65O)C4)O[C@@H]3C)O[C@@H]2C)C[C@H](O)[C@@H]1O` [Digoxin], in the experiment with HT29, the “sensitivity of cell viability” value was “very sensitive”. The “cell viability, single drug alone” value in experiment [1] was “reduced cell viability to varying degrees”. Further, the “inhibition of BIRC5 expression” value with BIRC5 expression is “inhibit BIRC5 expression”.
